Data reported in the CheMixHub viscosity set.
“And” between values parts separate entries of the source, which are not always exact repeats. Equal values may be shown once. ± gives the uncertainty stated by the source.

Experiment: xn = mol fraction of the nth substance listed

CCCO + O
Settings | viscosity
293.15 K, 100 kPa, x1 = 0.07 | 2.217 ± 0.0067 mPa·s
293.15 K, 100 kPa, x1 = 0.2 | 3.175 ± 0.0095 mPa·s and 3.013 ± 0.009 mPa·s
293.15 K, 101 kPa, x1 = 0.01 | 1.156 ± 0.008 mPa·s
293.15 K, 101 kPa, x1 = 0.02 | 1.335 ± 0.009 mPa·s
293.15 K, 101 kPa, x1 = 0.05 | 1.898 ± 0.013 mPa·s
293.15 K, 101 kPa, x1 = 0.07 | 2.209 ± 0.015 mPa·s
293.15 K, 101 kPa, x1 = 0.1 | 2.545 ± 0.017 mPa·s
293.15 K, 101 kPa, x1 = 0.2838 | 3.191 ± 0.042 mPa·s
293.15 K, 101 kPa, x1 = 0.3 | 3.173 ± 0.021 mPa·s
293.15 K, 101 kPa, x1 = 0.4 | 3.053 ± 0.02 mPa·s
293.15 K, 101 kPa, x1 = 0.5 | 2.88 ± 0.019 mPa·s
293.15 K, 101 kPa, x1 = 0.6 | 2.707 ± 0.018 mPa·s
293.15 K, 101 kPa, x1 = 0.7001 | 2.537 ± 0.017 mPa·s
293.15 K, 101 kPa, x1 = 0.8 | 2.403 ± 0.017 mPa·s
298.15 K, 101 kPa, x1 = 0.0058 | 0.9625 ± 0.007 mPa·s
298.15 K, 101 kPa, x1 = 0.01 | 1.024 ± 0.007 mPa·s
298.15 K, 101 kPa, x1 = 0.02 | 1.16 ± 0.008 mPa·s
298.15 K, 101 kPa, x1 = 0.0237 | 1.225 ± 0.009 mPa·s
298.15 K, 101 kPa, x1 = 0.0461 | 1.552 ± 0.012 mPa·s
298.15 K, 101 kPa, x1 = 0.05 | 1.603 ± 0.011 mPa·s
298.15 K, 101 kPa, x1 = 0.0678 | 1.82 ± 0.015 mPa·s
298.15 K, 101 kPa, x1 = 0.07 | 1.844 ± 0.012 mPa·s
298.15 K, 101 kPa, x1 = 0.0976 | 2.164 ± 0.019 mPa·s
298.15 K, 101 kPa, x1 = 0.1195 | 2.263 ± 0.02 mPa·s
298.15 K, 101 kPa, x1 = 0.1833 | 2.576 ± 0.025 mPa·s
298.15 K, 101 kPa, x1 = 0.2398 | 2.682 ± 0.029 mPa·s
298.15 K, 101 kPa, x1 = 0.2838 | 2.685 ± 0.036 mPa·s
298.15 K, 101 kPa, x1 = 0.3108 | 2.702 ± 0.033 mPa·s
298.15 K, 101 kPa, x1 = 0.4 | 2.592 ± 0.017 mPa·s
298.15 K, 101 kPa, x1 = 0.4971 | 2.511 ± 0.039 mPa·s
298.15 K, 101 kPa, x1 = 0.5 | 2.465 ± 0.017 mPa·s
298.15 K, 101 kPa, x1 = 0.6 | 2.333 ± 0.016 mPa·s
298.15 K, 101 kPa, x1 = 0.6916 | 2.236 ± 0.043 mPa·s
298.15 K, 101 kPa, x1 = 0.7001 | 2.202 ± 0.015 mPa·s
298.15 K, 101 kPa, x1 = 0.8 | 2.097 ± 0.015 mPa·s
298.15 K, 101 kPa, x1 = 0.8011 | 2.129 ± 0.046 mPa·s
298.15 K, 101 kPa, x1 = 0.8967 | 2.039 ± 0.048 mPa·s
298.15 K, 101 kPa, x2 = 0.0021 | 1.985 ± 0.018 mPa·s
298.15 K, 101 kPa, x2 = 0.0695 | 2.041 ± 0.018 mPa·s
298.15 K, 101 kPa, x2 = 0.0932 | 2.063 ± 0.018 mPa·s
298.15 K, 101 kPa, x2 = 0.1232 | 2.085 ± 0.018 mPa·s
298.15 K, 101 kPa, x2 = 0.1439 | 2.104 ± 0.018 mPa·s
298.15 K, 101 kPa, x2 = 0.1892 | 2.142 ± 0.018 mPa·s
298.15 K, 101 kPa, x2 = 0.2084 | 2.16 ± 0.018 mPa·s
298.15 K, 101 kPa, x2 = 0.9678 | 1.11 ± 0.0087 mPa·s
298.15 K, 101.3 kPa, x1 = 0.01 | 1.027 ± 0.029 mPa·s
298.15 K, 101.3 kPa, x1 = 0.025 | 1.247 ± 0.034 mPa·s
298.15 K, 101.3 kPa, x1 = 0.045 | 1.55 ± 0.042 mPa·s
298.15 K, 101.3 kPa, x1 = 0.065 | 1.81 ± 0.049 mPa·s
298.15 K, 101.3 kPa, x1 = 0.08 | 1.969 ± 0.053 mPa·s
303.15 K, 101 kPa, x1 = 0.01 | 0.906 ± 0.006 mPa·s
303.15 K, 101 kPa, x1 = 0.02 | 1.019 ± 0.007 mPa·s
303.15 K, 101 kPa, x1 = 0.05 | 1.366 ± 0.009 mPa·s
303.15 K, 101 kPa, x1 = 0.07 | 1.555 ± 0.01 mPa·s
303.15 K, 101 kPa, x1 = 0.1 | 1.786 ± 0.012 mPa·s
303.15 K, 101 kPa, x1 = 0.2838 | 2.277 ± 0.03 mPa·s
303.15 K, 101 kPa, x1 = 0.3 | 2.267 ± 0.015 mPa·s
303.15 K, 101 kPa, x1 = 0.4 | 2.216 ± 0.015 mPa·s
303.15 K, 101 kPa, x1 = 0.5 | 2.118 ± 0.014 mPa·s
303.15 K, 101 kPa, x1 = 0.6 | 2.023 ± 0.014 mPa·s
303.15 K, 101 kPa, x1 = 0.7001 | 1.92 ± 0.013 mPa·s
303.15 K, 101 kPa, x2 = 0.0998 | 1.794 ± 0.011 mPa·s
303.15 K, 101 kPa, x2 = 0.2 | 1.852 ± 0.011 mPa·s
303.15 K, 101 kPa, x2 = 0.2998 | 1.94 ± 0.012 mPa·s
303.15 K, 101 kPa, x2 = 0.5001 | 2.135 ± 0.013 mPa·s
303.15 K, 101 kPa, x2 = 0.6996 | 2.273 ± 0.013 mPa·s
303.15 K, 101 kPa, x2 = 0.7953 | 2.212 ± 0.013 mPa·s
303.15 K, 101 kPa, x2 = 0.8997 | 1.795 ± 0.011 mPa·s
303.15 K, 101 kPa, x2 = 0.9401 | 1.463 ± 0.009 mPa·s
303.15 K, 101 kPa, x2 = 0.98 | 1.025 ± 0.006 mPa·s
308.15 K, 101 kPa, x1 = 0.01 | 0.81 ± 0.006 mPa·s
308.15 K, 101 kPa, x1 = 0.02 | 0.912 ± 0.006 mPa·s
308.15 K, 101 kPa, x1 = 0.05 | 1.187 ± 0.008 mPa·s
308.15 K, 101 kPa, x1 = 0.07 | 1.342 ± 0.009 mPa·s
308.15 K, 101 kPa, x1 = 0.1 | 1.53 ± 0.01 mPa·s
308.15 K, 101 kPa, x1 = 0.2838 | 1.951 ± 0.025 mPa·s
308.15 K, 101 kPa, x1 = 0.3 | 1.953 ± 0.013 mPa·s
308.15 K, 101 kPa, x1 = 0.4 | 1.915 ± 0.013 mPa·s
308.15 K, 101 kPa, x1 = 0.5 | 1.84 ± 0.013 mPa·s
308.15 K, 101 kPa, x1 = 0.6 | 1.765 ± 0.012 mPa·s
308.15 K, 101 kPa, x1 = 0.7001 | 1.686 ± 0.012 mPa·s
308.15 K, 101 kPa, x1 = 0.8 | 1.623 ± 0.011 mPa·s
308.15 K, 101 kPa, x2 = 0.9678 | 0.9401 ± 0.0076 mPa·s
313.15 K, 101 kPa, x1 = 0.01 | 0.728 ± 0.005 mPa·s
313.15 K, 101 kPa, x1 = 0.02 | 0.807 ± 0.006 mPa·s
313.15 K, 101 kPa, x1 = 0.05 | 1.039 ± 0.007 mPa·s
313.15 K, 101 kPa, x1 = 0.07 | 1.167 ± 0.008 mPa·s
313.15 K, 101 kPa, x1 = 0.1 | 1.33 ± 0.009 mPa·s
313.15 K, 101 kPa, x1 = 0.2 | 1.625 ± 0.011 mPa·s
313.15 K, 101 kPa, x1 = 0.2838 | 1.69 ± 0.022 mPa·s
313.15 K, 101 kPa, x1 = 0.3 | 1.692 ± 0.011 mPa·s
313.15 K, 101 kPa, x1 = 0.5 | 1.61 ± 0.011 mPa·s
313.15 K, 101 kPa, x1 = 0.6 | 1.547 ± 0.011 mPa·s
313.15 K, 101 kPa, x1 = 0.7001 | 1.485 ± 0.01 mPa·s
318.15 K, 101 kPa, x1 = 0.01 | 0.659 ± 0.005 mPa·s
318.15 K, 101 kPa, x1 = 0.02 | 0.726 ± 0.005 mPa·s
318.15 K, 101 kPa, x1 = 0.05 | 0.919 ± 0.006 mPa·s
318.15 K, 101 kPa, x1 = 0.07 | 1.027 ± 0.007 mPa·s
318.15 K, 101 kPa, x1 = 0.1 | 1.164 ± 0.008 mPa·s
318.15 K, 101 kPa, x1 = 0.2 | 1.42 ± 0.01 mPa·s
318.15 K, 101 kPa, x1 = 0.3 | 1.479 ± 0.01 mPa·s
318.15 K, 101 kPa, x1 = 0.4 | 1.46 ± 0.01 mPa·s
318.15 K, 101 kPa, x1 = 0.5 | 1.416 ± 0.01 mPa·s
318.15 K, 101 kPa, x1 = 0.6 | 1.366 ± 0.01 mPa·s
318.15 K, 101 kPa, x1 = 0.7001 | 1.315 ± 0.009 mPa·s
318.15 K, 101 kPa, x2 = 0.9678 | 0.819 ± 0.0067 mPa·s
323.15 K, 100 kPa, x1 = 0.07 | 0.917 ± 0.0028 mPa·s
323.15 K, 100 kPa, x1 = 0.2 | 1.212 ± 0.0036 mPa·s
323.15 K, 100 kPa, x1 = 0.3 | 1.314 ± 0.0039 mPa·s
323.15 K, 101 kPa, x1 = 0.01 | 0.6 ± 0.004 mPa·s
323.15 K, 101 kPa, x1 = 0.02 | 0.657 ± 0.005 mPa·s
323.15 K, 101 kPa, x1 = 0.05 | 0.82 ± 0.006 mPa·s
323.15 K, 101 kPa, x1 = 0.07 | 0.912 ± 0.006 mPa·s
323.15 K, 101 kPa, x1 = 0.1 | 1.03 ± 0.007 mPa·s
323.15 K, 101 kPa, x1 = 0.2 | 1.25 ± 0.009 mPa·s
323.15 K, 101 kPa, x1 = 0.5 | 1.252 ± 0.009 mPa·s
323.15 K, 101 kPa, x1 = 0.6 | 1.212 ± 0.009 mPa·s
323.15 K, 101 kPa, x1 = 0.7001 | 1.171 ± 0.008 mPa·s
